Read-outs that look alike come from different tables or passages of the source.
Columns and labels:
[1] = molecular target: T1, h-cGAS (Homo sapiens, UniProt Q8N884); assay: cGAS biochemical assay, RapidFire 365 mass spectrometry (RF-MS); conditions: full-length h-cGAS 100 nM, dsDNA 25 nM, ATP and GTP 100 μM, 7 h at RT
T1 construct: The final concentration of full-length h-cGAS, dsDNA, ATP, and GTP were 100 nM

[2] = test system: THP1-Dual cells; assay: Cell-based Lucia luciferase assay in THP1-Dual cells (dsDNA transfection); conditions: Homo sapiens, 1 h pre-incubation, 100-bp dsDNA transfection for 24 h
[3] = test system: THP1 cells; assay: IFNB1 mRNA expression, qRT-PCR, THP1 cells; type: cell-based; conditions: Homo sapiens, read-out: THP1, qRT-PCR IC50
[4] = test system: primary human macrophage cells; assay: IFNB1 mRNA expression, qRT-PCR, primary human macrophages; type: cell-based; conditions: read-out: Human Macrophage, qRT-PCR IC50
[5] = test system: human PBMCs; assay: IFNB1 mRNA expression, qRT-PCR, human PBMCs; type: cell-based; conditions: PBMC, 4 hours post-transfection of dsDNA
[6] = THP-1, IFNB1 mRNA, 4 hours post-transfection of dsDNA
[7] = IFNB1 mRNA, 4 hours post-transfection of dsDNA
[8] = fresh PBMCs, read-out: Fresh human PBMCs, qRT-PCR IC50

T1 sequence (Q8N884 whole entry): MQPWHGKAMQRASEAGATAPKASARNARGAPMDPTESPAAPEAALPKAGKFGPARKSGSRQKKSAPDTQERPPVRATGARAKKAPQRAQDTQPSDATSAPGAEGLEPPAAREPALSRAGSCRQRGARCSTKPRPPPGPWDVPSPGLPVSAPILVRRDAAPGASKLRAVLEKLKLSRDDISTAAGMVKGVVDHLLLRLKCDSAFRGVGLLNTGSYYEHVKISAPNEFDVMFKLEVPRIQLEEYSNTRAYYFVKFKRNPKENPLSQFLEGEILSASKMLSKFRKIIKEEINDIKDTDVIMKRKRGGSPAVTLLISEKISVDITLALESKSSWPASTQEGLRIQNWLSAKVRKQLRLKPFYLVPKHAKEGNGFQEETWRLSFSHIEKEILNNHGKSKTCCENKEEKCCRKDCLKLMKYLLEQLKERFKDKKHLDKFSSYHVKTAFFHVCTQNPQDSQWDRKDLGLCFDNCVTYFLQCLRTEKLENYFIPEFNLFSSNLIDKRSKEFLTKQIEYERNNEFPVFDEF

| Structure (SMILES) | IC50 [1] [nM] | IC50 [2] [nM] | also measured |
| --- | --- | --- | --- |
| Cn1c2c(c3ccc(Cl)c(F)c31)CN(C(=O)CO)CC2 [TDI-006570] | 138 | > 40000 | – |
| O=C(CO)N1CCc2[nH]c3c(Cl)c(Cl)cc(-c4cn[nH]c4)c3c2C1 [TDI-007445, 1-(6,7-Dichloro-9-(1H-pyrazol-4-yl)-1,3,4,5-tetrahydro-2H-pyrido[4,3-b]indol-2-yl)-2-hydroxyethan-1-one] | – | 5260 | IC50 [3, 6]: 1440 nM; IC50 [4, 7]: 1200 nM |
| Nc1ccc(-c2cc(Cl)c(Cl)c3[nH]c4c(c23)CN(C(=O)CO)CC4)cn1 [TDI-008087] | – | 1970 | IC50 ([3]; THP-1, 4 h): 950 nM; IC50 ([4]; 4 h): 620 nM |
| O=C(CO)N1CCc2c(c3ccc(Br)c(F)c3n2CC(F)(F)F)C1 [TDI-008130] | 1120 | 25800 | – |
| O=C(CO)N1CCc2c(c3c(-c4cn[nH]c4)cc(Cl)c(F)c3n2C(F)F)C1 [TDI-008136] | 416 | 15900 | – |
| O=C(CO)N1CCc2c(c3ccc(Br)c(F)c3n2C(F)F)C1 [TDI-008179] | 506 | 34000 | – |
| COCCn1c2c(c3c(-c4ccn(C)n4)cc(Cl)c(F)c31)CN(C(=O)CO)CC2 [TDI-008292] | 402 | > 40000 | – |
| COCCc1cc(Cl)c(Cl)c2[nH]c3c(c12)CN(C(=O)CO)CC3 [TDI-008438] | 112 | – | – |
| O=C(CO)N1CCc2[nH]c3c(Cl)c(Cl)cc(CC4CCCC4)c3c2C1 [TDI-008439] | 663 | – | – |
| O=C(CO)N1CCc2[nH]c3c(Cl)c(Cl)cc(CN4CCCC4)c3c2C1 [TDI-008440] | 2230 | – | – |
| O=C(CO)N1CCc2[nH]c3c(Cl)c(Cl)cc(CN4CCCCC4)c3c2C1 [TDI-008441] | 5220 | – | – |
| O=C(CO)N1CCc2[nH]c3c(Cl)c(Cl)cc(CN4CCOCC4)c3c2C1 [TDI-008442] | 706 | – | – |
| O=C(CO)N1CCc2[nH]c3c(Cl)c(Cl)cc(Cc4ccc(-n5cccn5)cc4)c3c2C1 [TDI-008443] | 586 | – | – |
| Cn1nccc1-c1cc(Cl)c(Cl)c2[nH]c3c(c12)CN(C(=O)CO)CC3 [TDI-008444] | 3240 | – | – |
| Cc1ncccc1-c1cc(Cl)c(Cl)c2[nH]c3c(c12)CN(C(=O)CO)CC3 [TDI-008446] | 901 | – | – |
| CN1CC=C(c2cc(Cl)c(Cl)c3[nH]c4c(c23)CN(C(=O)CO)CC4)CC1 [TDI-008449] | 420 | – | – |
| O=C(CO)N1CCc2[nH]c3c(Cl)c(Cl)cc(-c4cncc(CO)c4)c3c2C1 [TDI-008450] | 54.5 | – | – |
| O=C(CO)N1CCc2[nH]c3c(Cl)c(Cl)cc(-c4cnc(C(F)(F)F)nc4)c3c2C1 [TDI-008451] | 9780 | – | – |
| Cn1nc(C(F)(F)F)cc1-c1cc(Cl)c(Cl)c2[nH]c3c(c12)CN(C(=O)CO)CC3 [TDI-008452] | 2910 | – | – |
| O=C(CO)N1CCc2[nH]c3c(Cl)c(Cl)cc(-c4cncc(C(F)(F)F)c4)c3c2C1 [TDI-008455] | 154 | – | – |

| Structure (SMILES) | IC50 [1] [nM] | IC50 [2] [nM] | also measured |
| --- | --- | --- | --- |
| O=C(CO)N1CCc2[nH]c3c(Cl)c(Cl)cc(-c4ccc5c(c4)OCO5)c3c2C1 [TDI-008457] | 44.6 | – | – |
| Cc1nc2ccc(-c3cc(Cl)c(Cl)c4[nH]c5c(c34)CN(C(=O)CO)CC5)cc2n1C [TDI-008460] | 830 | – | – |
| Cn1c(=O)[nH]c2cc(-c3cc(Cl)c(Cl)c4[nH]c5c(c34)CN(C(=O)CO)CC5)ccc21 [TDI-008461] | 344 | – | – |
| O=C1COc2cc(-c3cc(Cl)c(Cl)c4[nH]c5c(c34)CN(C(=O)CO)CC5)ccc2N1 [TDI-008462] | 1200 | – | – |
| O=C(CO)N1CCc2[nH]c3c(Cl)c(Cl)cc(-c4ccc(S(=O)(=O)NCCCO)cc4)c3c2C1 [TDI-008464] | 3910 | – | – |
| CNC(=O)c1cc(Cl)c(F)c2[nH]c3c(c12)CN(C(=O)CO)CC3 [TDI-008520] | 1040 | – | – |
| CC(=O)Nc1cc(Cl)c(F)c2[nH]c3c(c12)CN(C(=O)CO)CC3 [TDI-008522] | 365 | – | – |
| Cc1nc(C)c(-c2cc(Cl)c(Cl)c3[nH]c4c(c23)CN(C(=O)CO)CC4)[nH]1 [TDI-008605] | 568 | – | – |
| Cn1ccc(-c2cc(Cl)c(OCC(F)F)c3[nH]c4c(c23)CN(C(=O)CO)CC4)n1 [TDI-008796] | 984 | > 40000 | – |
| CCOc1c(Cl)cc(-c2ccn(C)n2)c2c3c([nH]c12)CCN(C(=O)CO)C3 [TDI-008797] | 351 | – | – |
| O=C(CO)N1CCc2[nH]c3c(F)c(Cl)cc(N4CCCC4)c3c2C1 [TDI-008860] | 350 | > 10000 | – |
| O=C(CO)N1CCc2[nH]c3c(F)c(Cl)cc(N4CCC5CC54)c3c2C1 (stereo not shown) [TDI-008861] | 480 | > 10000 | – |
| C[C@@H]1CCN(c2cc(Cl)c(F)c3[nH]c4c(c23)CN(C(=O)CO)CC4)C1 [TDI-008862] | 478 | – | – |
| CC1CCN(c2cc(Cl)c(F)c3[nH]c4c(c23)CN(C(=O)CO)CC4)C1 (stereo not shown) [TDI-008863] | 147 | > 10000 | – |
| O=C(CO)N1CCc2[nH]c3c(F)c(Cl)cc(N4CCC(O)C4)c3c2C1 (stereo not shown) [TDI-008864] | 455 | > 10000 | – |
| N#CC1CCN(c2cc(Cl)c(F)c3[nH]c4c(c23)CN(C(=O)CO)CC4)C1 (stereo not shown) [TDI-008865] | 1580 | > 10000 | – |
| O=C(CO)N1CCc2[nH]c3c(F)c(Cl)cc(N4CCC(F)(F)C4)c3c2C1 [TDI-008866] | 452 | > 10000 | – |
| Cc1nc(-c2cc(Cl)c(Cl)c3[nH]c4c(c23)CN(C(=O)CO)CC4)no1 [TDI-008937] | 77.6 | 16100 | – |
| O=C(CO)N1CCc2[nH]c3c(F)c(Cl)cc(-n4cccn4)c3c2C1 [TDI-009013, 1-(7-chloro-6-fluoro-9-pyrazol-1-yl-1,3,4,5-tetrahydropyrido [4,3-b]indol-2-yl)-2-hydroxy-ethanone] | 583 | > 40000 | – |
| O=C(CO)N1CCc2[nH]c3c(F)c(Cl)cc(N4CCCC4=O)c3c2C1 [TDI-009072] | 18600 | > 40000 | – |

Continued, in another order:

| IC50 [1] [nM] | IC50 [2] [nM] | Structure (SMILES) | also measured |
| --- | --- | --- | --- |
| 42.8 | 8140 | Cn1cc(-c2cc(Cl)c(Cl)c3[nH]c4c(c23)CN(C(=O)CO)CC4)cn1 [TDI-007635] | IC50 [3, 6]: 2140 nM |
| 22.8 | 4950 | O=C(CO)N1CCc2[nH]c3c(Cl)c(Cl)cc(-c4ccco4)c3c2C1 [TDI-008070] | – |
| 39.3 | 9000 | O=C(CO)N1CCc2[nH]c3c(Cl)c(Cl)cc(-c4ccccc4)c3c2C1 [TDI-008071] | – |
| 20.4 | 6230 | O=C(CO)N1CCc2[nH]c3c(Cl)c(Cl)cc(-c4cccnc4)c3c2C1 [TDI-008073] | – |
| 19.4 | 6850 | O=C(CO)N1CCc2[nH]c3c(Cl)c(Cl)cc(-c4cncnc4)c3c2C1 [TDI-008074] | – |
| 14.6 | 3320 | Cn1ccc(-c2cc(Cl)c(Cl)c3[nH]c4c(c23)CN(C(=O)CO)CC4)n1 [TDI-008077] | IC50 [3, 6]: 930 nM; IC50 [4, 7]: 860 nM; IC50 [5, 8]: 1150 nM |
| 25.2 | 6430 | O=C(CO)N1CCc2[nH]c3c(Cl)c(Cl)cc(-c4cnn5ccccc45)c3c2C1 [TDI-008116] | – |
| 18.2 | 6190 | O=C(CO)N1CCc2[nH]c3c(Cl)c(Cl)cc(-c4ccc5nonc5c4)c3c2C1 [TDI-008117] | – |
| 32.2 | 9900 | O=C(CO)N1CCc2[nH]c3c(F)c(Cl)cc(-c4cn[nH]c4)c3c2C1 [TDI-008185] | – |
| 23 | 1700 | Cn1ccc(-c2cc(Cl)c(F)c3[nH]c4c(c23)CN(C(=O)CO)CC4)n1 [TDI-008246, 1-(7-Chloro-6-fluoro-9-(1-methyl-1H-pyrazol-3-yl)-1,3,4,5-tetrahydro-2H-pyrido[4,3-b]indol-2-yl)-2-hydroxyethan-1-one] | IC50 [3, 6]: 1090 nM; IC50 [4, 7]: 600 nM; IC50 ([5]; freeze-thawed PBMCs, read-out: Freeze-thawed human PBMCs, qRT-PCR IC50): 1160 nM; IC50 [5, 8]: 1120 nM |
| 23.2 | 6520 | CCn1ccc(-c2cc(Cl)c(Cl)c3[nH]c4c(c23)CN(C(=O)CO)CC4)n1 [TDI-008371] | – |
| 35 | – | Cc1cc(-c2cc(Cl)c(Cl)c3[nH]c4c(c23)CN(C(=O)CO)CC4)ccn1 [TDI-008445] | – |
| 24.9 | – | Cc1cncc(-c2cc(Cl)c(Cl)c3[nH]c4c(c23)CN(C(=O)CO)CC4)c1 [TDI-008447] | – |
| 25.9 | – | O=C(CO)N1CCc2[nH]c3c(Cl)c(Cl)cc(-c4cncc(F)c4)c3c2C1 [TDI-008448] | – |
| 18 | – | O=C(CO)N1CCc2[nH]c3c(Cl)c(Cl)cc(-c4ccn(C(F)F)n4)c3c2C1 [TDI-008474] | – |
| 22.6 | 5800 | Cc1noc(-c2cc(Cl)c(Cl)c3[nH]c4c(c23)CN(C(=O)CO)CC4)n1 [TDI-008768] | – |
| 30.5 | 12900 | Cc1nnc(-c2cc(Cl)c(Cl)c3[nH]c4c(c23)CN(C(=O)CO)CC4)o1 [TDI-008777] | – |
| 17.2 | 3410 | Cn1ccc(-c2cc(Br)c(F)c3[nH]c4c(c23)CN(C(=O)CO)CC4)n1 [TDI-008783] | – |
| 24.5 | 2890 | C[C@@H]1CN(C(=O)CO)Cc2c1[nH]c1c(F)c(Cl)cc(-c3ccn(C)n3)c21 [TDI-009000] | – |
| 32.7 | 3180 | C[C@H]1CN(C(=O)CO)Cc2c1[nH]c1c(F)c(Cl)cc(-c3ccn(C)n3)c21 [TDI-009001] | – |
| 23.3 | 1150 | Cn1ncc(-c2cc(Cl)c(Cl)c3[nH]c4c(c23)CN(C(=O)CO)CC4)n1 [TDI-009007] | – |
| 17.6 | 720 | Cn1ncc(-c2cc(Cl)c(F)c3[nH]c4c(c23)CN(C(=O)CO)CC4)n1 [TDI-009186] | – |
| 39.2 | 4400 | Cn1ccc(-c2cc(Cl)c(C#N)c3[nH]c4c(c23)CN(C(=O)CO)CC4)n1 [TDI-009208] | – |

— patent US11414422B2, “Substituted pyrido[4,3-b]indoles and azepino[4,5-b]indoles as inhibitors of cGAS” (The Rockefeller University, priority 2018, dated 2022)
